Source: PMC6150237, “Study of Absorption Characteristics of the Total Saponins from Radix Ilicis Pubescentis in an In Situ Single-Pass Intestinal Perfusion (SPIP) Rat Model by Using Ultra Performance Liquid Chromatography (UPLC)” (Molecules : A Journal of Synthetic Chemistry and Natural …, 2017)
“Also recorded” adds a separate entry of the source.

What was measured:
[1] = tested on: rat duodenum; experiment: SPIP of MDQ-TS with or without EDTA (tight junction modulator); assay type: in vivo; details: MDQ-TS 2.5 mg/mL, EDTA 2.5 mmol·L^−1
Method: (§1) MDQ-TS perfusion samples at low, middle, and high concentration levels of 1.25, 2.5, and 5.0 mg·mL^−1 were prepared by separately dissolving MDQ-TS in the minimum amount of DMSO and diluted with K-R buffer solution. The amount of DMSO was 0.5% in the final perfusion solutions. C1, C2, C3, C4, DC1, and DC2 perfusion samples with the concentration equivalent to the amount contained in 2.5 mg·mL^−1 of MDQ-TS were individually prepared in the same way. Verapamil, amantadine and EDTA were directly dissolved in the MDQ-TS perfusate with terminal concentrations of 200 μmol·L^−1, 2.5 mmol·L^−1, and 2.5 mmol·L^−1, accordingly, and used for investigating the mechanisms involved for absorption.
(§2) In situ single-pass intestinal perfusion (SPIP) studies were performed using an experimental design adapted from the literature with some modifications. Briefly, male Sprague-Dawley rats weighing 180–220 g were acclimatized for at least one week before the experiment, and fasted for 18 h with free access to water before the perfusion experiment. Rats were anesthetized with an intraperitoneal injection of urethane (30 mg·kg^−1 body weight), and kept on a homeothermic blanket to maintain normal body temperature. The abdomen was opened with a midline longitudinal incision, and three segments of rat intestine (duodenum, jejunum, and ileum) of approximately 10 cm each were carefully cannulated on two ends with plastic tubing. Initially, the perfusion solution free of drug (37 °C) was pumped by peristaltic pump (BT100-1F, Longer Pump Co., Baoding, China) through the cannulated segments at a flow rate of 1 mL/min for approximately 30 min in order to clean out any residual debris. Secondly, the perfusion solution containing a known concentration of substance (C1, C2, C3, C4, DC1, DC2, and MDQ-TS) was perfused at 37 °C through the intestinal lumen at a constant flow rate of 0.2 mL/min. The first 20 min of period corresponds to steady state, i.e., when the substance is in equilibrium with the intestinal membrane. After steady state, samples were collected from distal portion of duodenum, jejunum and ileum at 10 min intervals (0–10, 10–20, 20–30, 30–40, 40–50, 50–60 min) in pre-weighted vials. Samples were immediately frozen at −20 °C until analysis by validated UPLC. During the experiment, care was taken to avoid disturbance of the circulatory system and the exposed segment was covered with a piece of sterilized gauze to keep it warm and moist by frequent application of warm (37 °C) saline. The intestinum tenue maintained its viability and intact state without disrupting the blood supply throughout the experimental period. Finally, animals were sacrificed after depth anesthesia by intraperitoneal injection of urethane, according to protocols for euthanasia in experimental animals. After death, the intestinal segment was removed for measurements of length and inside diameter.
The net water flux in the in situ perfusion studies (water absorption and efflux in the intestinal segment) was determined by gravimetric method. The effective absorption rate constant (Ka) and effective apparent permeability (Papp) of compounds in the intestinal segments were calculated according to the following mathematical expression:(1) Ka=(1−CoutQout/CinQin)Q/V (2) Papp=−Qln(CoutQout/CinQin)/2πrl where Cin and Cout are the concentration of test drug in the effluent perfusate through the inlet and outlet tube (μg·mL^−1), respectively. Qin and Qout represent the inlet and outlet volume of effluent perfusate (mL), respectively. Q is the volume flow rate of perfusion (mL·h^−1). V is the volume of the intestinal segment concerned (mL). 2πrl is the area of the mass transfer surface of intestinal segment concerned (cm^2). […]

[2] = tested on: rat small intestine (duodenum, jejunum, ileum); experiment: In situ single-pass intestinal perfusion (SPIP), saponins administrated in MDQ-TS form; assay type: in vivo; set-up: key: -: no absorption
Method: as §1, §2
(§3) The net water flux in the in situ perfusion studies (water absorption and efflux in the intestinal segment) was determined by gravimetric method. The effective absorption rate constant (Ka) and effective apparent permeability (Papp) of compounds in the intestinal segments were calculated according to the following mathematical expression:(1) Ka=(1−CoutQout/CinQin)Q/V (2) Papp=−Qln(CoutQout/CinQin)/2πrl where Cin and Cout are the concentration of test drug in the effluent perfusate through the inlet and outlet tube (μg·mL^−1), respectively. Qin and Qout represent the inlet and outlet volume of effluent perfusate (mL), respectively. Q is the volume flow rate of perfusion (mL·h^−1). V is the volume of the intestinal segment concerned (mL). 2πrl is the area of the mass transfer surface of intestinal segment concerned (cm^2).

[3] = tested on: rat small intestine (duodenum, jejunum, ileum); experiment: In situ single-pass intestinal perfusion (SPIP), saponins administrated in monomer forms; assay type: in vivo; set-up: key to Papp / Ka: -: no absorption; details: monomer form; for Ka / Papp: symbol; for intestinal absorption of monomers: small intestine, result in words
Method: as §1, §2, §3

[4] = Apparent oil-water partition coefficient, shake-flask method; assay type: physicochemical; details: n-octanol / phosphate buffer pH 1.2-9.0, 37 °C; Kow = log Co/(Ct−Co)
Method: The equilibrium partitioning of C1, C2, C3, C4, DC1, and DC2 between organic lipid and water (Kow) was determined in our study by the traditional shake-flask method (SFM). Briefly, 0.5 mL of each saponin standard working solution (100 µg·mL^−1 in water-saturated n-octanol) was accurately measured into 5 mL centrifuge tubes, and spiked with 0.5 mL of different phosphate buffer solutions (pH: 1.2, 2.0, 3.6, 5.8, 6.8, 7.4, 7.8, and 9.0), respectively. After vortex-mixing for 45 min, the tubes were kept in a temperature-stable horizontal shaking bath (37 °C) for 24 h, and then centrifuged at 13,000 rpm for 10 min. Two hundred microliters of organic supernatant solution was measured, diluted with 800 µL of methanol, and mixed well. Ten microliters of the final solution was injected into the HPLC system (detailed experimental conditions and method validation results were not shown) for determination of the drug concentration in the n-octanol phase. The Kow values of the six saponins were calculated according to the following mathematical expression:(3) Kow=logCo/Ct−Co where Ct is the total concentration of the drug, and Co is the concentration of the drug in n-octanol phase.

[5] = MDQ-TS form 1.25 mg·mL^−1, duodenum, symbol
[6] = MDQ-TS form 1.25 mg·mL^−1, ileum, symbol
[7] = MDQ-TS form 1.25 mg·mL^−1, jejunum, symbol
[8] = MDQ-TS form 2.5 mg·mL^−1, duodenum, n = 5
[9] = MDQ-TS form 2.5 mg·mL^−1, ileum, n = 5
[10] = MDQ-TS form 2.5 mg·mL^−1, jejunum, n = 5
[11] = MDQ-TS form 5.0 mg·mL^−1, duodenum, n = 5
[12] = MDQ-TS form 5.0 mg·mL^−1, ileum, n = 5
[13] = MDQ-TS form 5.0 mg·mL^−1, jejunum, n = 5
[14] = administrated in MDQ-TS form, summary bound (except DC2 in 1.25 mg·mL^−1 MDQ-TS group)
[15] = MDQ-TS form 1.25 mg·mL^−1, duodenum, n = 5
[16] = MDQ-TS form 1.25 mg·mL^−1, ileum, n = 5
[17] = MDQ-TS form 1.25 mg·mL^−1, jejunum, n = 5

Row | Molecule | Ka increase in comparison with non-EDTA added group [1] [fold] | Papp increase in comparison with non-EDTA added group [1] [fold] | Ka [2, 8] | Papp [2, 8] | Ka [2, 9] | Papp [2, 9] | Ka [2, 10] | Papp [2, 10] | Ka [2, 11] | Papp [2, 11] | Ka [2, 12] | Papp [2, 12] | Ka [2, 13] | Papp [2, 13] | Papp [2, 14] [cm/min] | Ka ([3]; duodenum) | Papp ([3]; duodenum) | Ka ([3]; ileum) | Papp ([3]; ileum) | Ka ([3]; jejunum) | also measured
1 | C[C@@H]1O[C@@H](O[C@H]2[C@H](O[C@H]3[C@H](O[C@H]4CC[C@]5(C)[C@H]6CC=C7[C@H]8[C@](C(=O)O[C@@H]9O[C@H](CO)[C@@H](O)[C@H](O)[C@H]9O)(CC[C@H](C)[C@@]8(C)O)CC[C@@]7(C)[C@]6(C)CC[C@H]5C4(C)C)OC[C@@H](O)[C@@H]3O)O[C@H](CO)[C@@H](O)[C@@H]2O)[C@H](O)[C@H](O)[C@H]1O [DC2, ilexoside O] | ~3.0 | ~2.1 | 0.62 ± 0.13 ×10^−2 min^−1 | 0.16 ± 0.06 ×10^−2 cm·min^−1 | 1.54 ± 0.85 ×10^−2 min^−1 | 0.19 ± 0.08 ×10^−2 cm·min^−1 | 1.23 ± 0.46 ×10^−2 min^−1 | 0.21 ± 0.08 ×10^−2 cm·min^−1 | 1.27 ± 0.44 ×10^−2 min^−1 | 0.25 ± 0.16 ×10^−2 cm·min^−1 | 1.14 ± 0.45 ×10^−2 min^−1 | 0.19 ± 0.07 ×10^−2 cm·min^−1 | 1.73 ± 0.66 ×10^−2 min^−1 | 0.26 ± 0.17 ×10^−2 cm·min^−1 | > 0.0012 | - | - | - | - | - | Ka [2, 5]: -; Papp [2, 5]: -; Ka [2, 6]: -; Papp [2, 6]: -; Ka [2, 7]: -; Papp [2, 7]: -; Papp ([3]; jejunum): -; intestinal absorption of monomers [3]: could not be absorbed by small intestine at all; also recorded: no absorption; also recorded: could not be absorbed by the gastrointestinal tract at all; apparent oil-water partition coefficient (Kow) [4]: −1 to 2
2 | ilexsaponin B3 [DC1] | ~1.4 | ~1.4 | 1.76 ± 0.44 ×10^−2 min^−1 | 0.34 ± 0.08 ×10^−2 cm·min^−1 | 1.65 ± 0.33 ×10^−2 min^−1 | 0.16 ± 0.07 ×10^−2 cm·min^−1 | 1.99 ± 0.49 ×10^−2 min^−1 | 0.35 ± 0.08 ×10^−2 cm·min^−1 | 1.53 ± 0.55 ×10^−2 min^−1 | 0.30 ± 0.13 ×10^−2 cm·min^−1 | 1.21 ± 0.58 ×10^−2 min^−1 | 0.21 ± 0.11 ×10^−2 cm·min^−1 | 2.05 ± 0.72 ×10^−2 min^−1 | 0.32 ± 0.19 ×10^−2 cm·min^−1 | > 0.0012 | - | - | - | - | - | Ka [2, 15]: 0.56 ± 0.17 ×10^−2 min^−1; Papp [2, 15]: 0.13 ± 0.05 ×10^−2 cm·min^−1; Ka [2, 16]: 0.59 ± 0.35 ×10^−2 min^−1; Papp [2, 16]: 0.22 ± 0.13 ×10^−2 cm·min^−1; Ka [2, 17]: 0.46 ± 0.21 ×10^−2 min^−1; Papp [2, 17]: 0.23 ± 0.15 ×10^−2 cm·min^−1; Papp ([3]; jejunum): -; intestinal absorption of monomers [3]: could not be absorbed by small intestine at all; also recorded: no absorption; also recorded: could not be absorbed by the gastrointestinal tract at all; apparent oil-water partition coefficient (Kow) [4]: −1 to 2
